# Test results from patent US6545007B2, “Methods for inhibiting the transmission of HIV using topically applied substituted 6-benzyl-4-oxopyrimidines” (Idenix (Cayman) Limited, priority 2000, dated 2003).
# pEC50: −log10 of the molar value. Like-named read-outs stand apart in the source and are kept apart here.
# Legend:
# mock-infected MT-4 cells = experiment: Cytotoxicity: viability of mock-infected cells by the MTT method; format: cell-based, human
# Experimental: (§1) Cells and viruses. MT-4, C8166,H9/IIIB and CEM cells were grown at 37° C. in a 5% CO2 atmosphere in RPMI 1640 medium, supplemented with 10% fetal calf serum (FCS), 100 IU/mL penicillin and 100 μg/mL streptomycin. Cell cultures were checked periodically for the absence of mycoplasma contamination with a MycoTect Kit (Gibco). Human immunodeficiency virus type-I (HIV-1, IIIB strain) was obtained from supernatants of persistently infected H9/IIIB cells.
# (§2) Anti-HIV Assays. Activity of the compounds against HIV-1 and HIV-2 multiplication in acutely infected cells was based on the inhibition of virus-induced cytopathicity in MT-4 and C8166 cells, respectively. Briefly, 50 μL of culture medium containing 1×10^4 cells were added to each well of flat-bottom microtiter trays containing 50 μl of culture medium with or without various concentrations of the test compounds. Then 20 μL of an HIV suspension containing 100 CCID50 were added. After a 4-day incubation at 37° C., the number of viable cells was determined by the 3-(4,5-dimethylthiazol-[…])-2,5-diphenyltetrazolium bromide (MTT) method. Cytotoxicity of the compounds was evaluated in parallel with their antiviral activity. It was based on the viability of mock-infected cells, as monitored by the MTT method.
# HIV-1 (IIIB strain) = format: cell-based; conditions: for pEC50: anti-HIV-1 activity; for SI: selectivity index (CC50/EC50)
# Experimental: Compounds. Compounds were solubilized in DMSO at 200 mM and then diluted into culture medium.
# as §1
# HIV Titration. Titration of HIV was performed in C8166 cells by the standard limiting dilution method (dilution 1:2, four replica wells per dilution) in 96-well plates. The infectious virus titre was determined by light microscope scoring of cytopathicity after 4 days of incubation and the virus titres were expressed as CCID50/mL.
# as §2
# [1] = acutely infected MT-4 cells, MTT
SMILES,CC50 (mock-infected MT-4 cells; MTT),pEC50 (HIV-1 (IIIB strain); [1]),CC50 (mock-infected MT-4 cells),pEC50 (HIV-1 (IIIB strain); HIV-1-infected MT-4 cells),SI (HIV-1 (IIIB strain))
CCCNc1nc(C(C)c2c(F)cccc2F)cc(=O)[nH]1 (stereo not drawn) [MC 1190],103 µM,7.70,–,–,–
"CSCSc1nc(Cc2c(F)cccc2F)c(C(C)C)c(=O)[nH]1 [MC 1145, 6-(2,6-Difluorophenyhnethyl)-3,4-dihydro-5-(1-methylethyl)-2-(methylthiomethyl) thiopyrimidin-4-(3H)-one]",200 µM,7.00,–,–,–
CCC(C)Nc1nc(C(C)c2c(F)cccc2F)cc(=O)[nH]1 (stereo not drawn) [MC 1192],86 µM,7.40,–,–,–
CC1CCC(C)C(Oc2nc(Cc3ccccc3)cc(=O)[nH]2)C1 (stereo not drawn) [MC 507],–,–,143 µM,5.46,40
CCC(C)Sc1nc(C(C)c2c(F)cccc2F)c(C)c(=O)[nH]1 (stereo not drawn) [MC 1109],–,–,200 µM,7.52,"6,666"
CCCCNc1nc(C(C)c2c(F)cccc2F)cc(=O)[nH]1 (stereo not drawn) [MC 1189],52 µM,7.52,–,–,–
CC1CCC(Oc2nc(Cc3ccccc3)cc(=O)[nH]2)CC1C (stereo not drawn) [MC 508],–,–,58 µM,5.19,9
CCC(c1ccccc1)c1cc(=O)[nH]c(SC(C)C)n1 (stereo not drawn) [MC 899],–,–,200 µM,6.10,250
CC(c1cc(=O)[nH]c(SC2CCCC2)n1)c1c(Cl)cccc1Cl (stereo not drawn) [MC 996],–,–,78.3 µM,6.00,78.3
Cc1c(Cc2c(F)cccc2F)nc(N2CCSCC2)[nH]c1=O [MC 1206],> 200 µM,7.05,–,–,–
"CSCSc1nc(Cc2c(F)cccc2F)cc(=O)[nH]1 [MC 1161, 6-(2,6-Difluorophenyhnethyl)-3,4-dihydro-2-(methylthiomethyl)thiopyrimidin-4-(3H)-one]",> 200 µM,6.10,–,–,–
CSc1nc(Cc2c(Cl)cccc2Cl)cc(=O)[nH]1 [MC 877],–,–,> 200 µM,5.49,>62
CCC(C)Sc1nc(Cc2ccc(Cl)cc2)c(C)c(=O)[nH]1 (stereo not drawn) [MC 911],–,–,> 200 µM,5.02,20
CCC(C)Sc1nc(Cc2ccccc2N)cc(=O)[nH]1 (stereo not drawn) [MC 825],–,–,> 200 µM,4.67,>9
O=c1cc(Cc2c(F)cccc2F)nc(N2CCCC2)[nH]1 [MC 1196],> 200 µM,5.68,–,–,–
CCCCNc1nc(Cc2c(F)cccc2F)c(C)c(=O)[nH]1 [MC 1185],> 200 µM,7.70,–,–,–
O=c1cc(Cc2c(F)cccc2F)nc(NC2CC2)[nH]1 [MC 980],–,–,> 200 µM,5.50,>63
CCC(C)Nc1nc(Cc2c(F)cccc2F)c(C)c(=O)[nH]1 (stereo not drawn) [MC 1130],–,–,200 µM,7.15,"2,857"
CCC(C)Sc1nc(Cc2c(Cl)cccc2Cl)c(C)c(=O)[nH]1 (stereo not drawn) [MC 850],–,–,> 200 µM,7.30,">4,000"
CCC(C)Sc1nc(Cc2cc(F)cc(F)c2)cc(=O)[nH]1 (stereo not drawn) [MC 1041],–,–,> 200 µM,5.85,>143
CCC(C)Sc1nc(Cc2ccccc2Cl)c(C)c(=O)[nH]1 (stereo not drawn) [MC 909],–,–,> 200 µM,6.57,>741
Cc1c(C(C)c2c(F)cccc2F)nc(SC(C)C)[nH]c1=O (stereo not drawn) [MC 1137],200 µM,8.15,–,–,–
CNc1nc(C(C)c2c(F)cccc2F)c(C)c(=O)[nH]1 (stereo not drawn) [MC 1170],≥ 200 µM,7.52,–,–,–
CCC(C)Sc1nc(C(c2ccccc2)c2ccccc2)cc(=O)[nH]1 (stereo not drawn) [MC 796],–,–,61 µM,< 4.21,–

SMILES,CC50 (mock-infected MT-4 cells; MTT),pEC50 (HIV-1 (IIIB strain); [1]),CC50 (mock-infected MT-4 cells),pEC50 (HIV-1 (IIIB strain); HIV-1-infected MT-4 cells),SI (HIV-1 (IIIB strain))
CCCCSc1nc(C(C)c2c(F)cccc2F)c(C)c(=O)[nH]1 (stereo not drawn) [MC 1175],112 µM,8.10,–,–,–
CCC(C)Nc1nc(Cc2c(F)cccc2F)cc(=O)[nH]1 (stereo not drawn) [MC 945],–,–,> 200 µM,6.89,">1,540"
CC(C)CSc1nc(C(C)c2c(F)cccc2F)cc(=O)[nH]1 (stereo not drawn) [MC 1044],–,–,> 200 µM,7.30,">4,000"
Cc1c(Cc2c(F)cccc2F)nc(N2CCOCC2)[nH]c1=O [MC 1205],> 200 µM,7.33,–,–,–
CC(C)Sc1nc(Cc2c(F)cccc2F)cc(=O)[nH]1 [MC 860],–,–,> 200 µM,6.70,">1,000"
Cc1c(Cc2c(F)cccc2F)nc(NC2CCCC2)[nH]c1=O [MC 1050],–,–,> 200 µM,7.70,">10,000"
CSc1nc(Cc2c(F)cccc2F)c(C)c(=O)[nH]1 [MC 869],–,–,200 µM,6.72,"1,053"
CCC(c1cc(=O)[nH]c(SC2CCCCC2)n1)c1c(Cl)cccc1Cl (stereo not drawn) [MC 1003],–,–,> 200 µM,5.44,>55.5
CCC(C)Sc1nc(Cc2ccccc2C(F)(F)F)cc(=O)[nH]1 (stereo not drawn) [MC 868],–,–,> 200 µM,4.49,6.2
CCC(C)Sc1nc(Cc2ccc(Cl)cc2)cc(=O)[nH]1 (stereo not drawn) [MC 859],–,–,120 µM,5.30,24
CCC(C)Sc1nc(Cc2ccc(N)cc2)cc(=O)[nH]1 (stereo not drawn) [MC 960],–,–,> 200 µM,4.64,>8
CCC(C)Sc1nc(Cc2cccc([N+](=O)[O-])c2)cc(=O)[nH]1 (stereo not drawn) [MC 897],–,–,157 µM,6.40,392
CCC(C)Sc1nc(Cc2c(F)cccc2F)cc(=O)[nH]1 (stereo not drawn) [MC 848],–,–,200 µM,7.40,"5,000"
CCCCSc1nc(Cc2c(Cl)cccc2Cl)c(C)c(=O)[nH]1 [MC 920],–,–,> 200 µM,5.93,>171
CCNc1nc(Cc2c(F)cccc2F)cc(=O)[nH]1 [MC 1119],–,–,> 200 µM,6.10,>250
Cc1c(C(C)c2c(F)cccc2F)nc(SCC(C)C)[nH]c1=O (stereo not drawn) [MC 1153],> 200 µM,8.00,–,–,–
CCC(C)Sc1nc(Cc2ccc(C)cc2)c(C)c(=O)[nH]1 (stereo not drawn) [MC 845],–,–,26 µM,6.10,32
CCC(C)Sc1nc(C(C)c2c(F)cccc2F)cc(=O)[nH]1 (stereo not drawn) [MC 1110],–,–,> 200 µM,7.52,">6,666"
CC(c1cc(=O)[nH]c(SC2CCCC2)n1)c1cccc2ccccc12 (stereo not drawn) [MC 972],–,–,93 µM,6.30,186
CCc1c(Cc2cccc3ccccc23)nc(SC(C)CC)[nH]c1=O (stereo not drawn) [MC 804],–,–,> 200 µM,5.28,>34
C=CCc1c(Cc2ccccc2)nc(SC(C)CC)[nH]c1=O (stereo not drawn) [MC 852],–,–,> 200 µM,5.52,>67
CC(C)Sc1nc(C(C)c2c(Cl)cccc2Cl)cc(=O)[nH]1 (stereo not drawn) [MC 1001],–,–,117 µM,5.92,97.5
"CN(C)c1nc(Cc2c(F)cccc2F)cc(=O)[nH]1 [MC 1182, 6-(2,6-Difluorophenylmethyl)-3,4-dihydro-2-N,N-dimethylaminopyrimidin-4-(3H)-one]",> 200 µM,7.30,–,–,–
CCCCSc1nc(Cc2c(F)cccc2F)cc(=O)[nH]1 [MC 872],–,–,162 µM,6.74,900
